Test [1] has as its system A549. Put plainly: Cytotoxicity against human A549 cells. The following applies: read-out: ED50 (the source's name). It counts as functional.
The subject of test [2] is A549. Description: Cytotoxicity against human A549 cells at 4 ug/ml. It is filed as functional, cell-based.
The nature of test [3]: Cytotoxicity against human RPMI cells. It is filed as functional. The following applies: read-out: ED50 (the source's name).
A further test relates to P388. Description: Cytotoxicity against mouse P388 cells. The following applies: read-out: ED50 (the source's name). It counts as functional.
Another test relates to KB. Put plainly: Cytotoxicity against human KB cells. It is filed as functional. The conditions noted are these: read-out: ED50 (the source's name).
Another test concerns TE-671. Description: Cytotoxicity against human TE671 cells. It is filed as functional. The conditions noted are these: read-out: ED50 (the source's name).
Another test deals with HCT-8. Put plainly: Cytotoxicity against human HCT8 cells at 4 ug/ml. It is filed as functional, cell-based.

Our source for the EC50 and Activity values is ChEMBL document CHEMBL1158973, “The crystal structure and cytotoxicity of goniodiol-7-monoacetate from Goniothalamus amuyon” (1991).

Each structure is given as a SMILES string. ≈ marks a conversion by molar mass, not a printed value. Calls of active or inactive are those of the source. The rule behind the calls is not given here.

In the case of `O=C1C=CC[C@H]([C@H](O)[C@H](O)c2ccccc2)O1` [GONIODIOL], the EC50 with A549 [1] amounted to 0.12 µg/mL (≈ 0.512 µM).
In the case of `CC(=O)O[C@H]([C@H](O)c1ccccc1)[C@H]1CC=CC(=O)O1`, the outcome in the test on A549 [2] and in the test with HCT-8 was inactive. Besides, the EC50 (in test [3]; in the test on P388; in the test on KB; in the test on TE-671) was below 0.1 µg/mL throughout.
